# Results taken from ChEMBL document CHEMBL6078677, “Discovery and optimization of tetrahydroacridine derivatives as a novel class of antibiotics against multidrug-resistant Gram-positive pathogens by targeting type I signal peptidase and disrupting bacterial membrane” (Eur J Med Chem, 2025).
# Calls of active or inactive are those of the source. The rule behind the calls is not given here.
# Key:
# Staphylococcus aureus [1] = assay: Antimicrobial activity against Staphylococcus aureus ATCC 29213 assessed as inhibition of visible growth of bacteria incubated for 20 hrs by broth microdilution method; type: functional
# Enterococcus faecium [2] = assay: Antimicrobial activity against Enterococcus faecium QF31 harboring erythromycin resistance rRNA methylase B and chloramphenicol-florfenicol resistance methylase assessed as inhibition of visible growth of bacteria incubated for 20 hrs by broth microdilution method; type: functional
# Enterococcus faecalis [3] = assay: microbe, parasite or virus in culture; type: functional; conditions: SF23-1, time 20 hrs
# Description: Antimicrobial activity against Enterococcus faecalis SF23-1 harboring erythromycin-resistance rRNA methylase B, tetracycline efflux protein L and chloramphenicol-florfenicol resistance methylase assessed as inhibition of visible growth of bacteria incubated for 20 hrs by broth microdilution method
# Streptococcus suis [4] = assay: Antimicrobial activity against Streptococcus suis P1/7 assessed as inhibition of visible growth of bacteria incubated for 20 hrs by broth microdilution method; type: functional
# Staphylococcus aureus [5] = assay: Antimicrobial activity against Staphylococcus aureus YZSA-15 harboring erythromycin resistance rRNA methylase C and vancomycin resistance locus assessed as inhibition of visible growth of bacteria incubated for 20 hrs by broth microdilution method; type: functional
# Staphylococcus aureus [6] = assay: Antimicrobial activity against Staphylococcus aureus YZSA-21 harboring erythromycin resistance rRNA methylase C assessed as inhibition of visible growth of bacteria incubated for 20 hrs by broth microdilution method; type: functional
# Staphylococcus aureus [7] = assay: Antimicrobial activity against Staphylococcus aureus YZSA-24 harboring erythromycin resistance rRNA methylase C and methicillin resistance gene resistance locus assessed as inhibition of visible growth of bacteria incubated for 20 hrs by broth microdilution method; type: functional
# Staphylococcus aureus [8] = assay: microbe, parasite or virus in culture; type: functional; conditions: M92-1, time 20 hrs
# Description: Antimicrobial activity against Staphylococcus aureus M92-1 harboring erythromycin resistance rRNA methylase B, tetracycline efflux protein L and oxazolidinone-phenicol transferable resistance gene assessed as inhibition of visible growth of bacteria incubated for 20 hrs by broth microdilution method
# Staphylococcus aureus [9] = assay: microbe, parasite or virus in culture; type: functional; conditions: M147-2, time 20 hrs
# Description: Antimicrobial activity against Staphylococcus aureus M147-2 harboring erythromycin resistance rRNA methylase B, tetracycline efflux protein L and chloramphenicol-florfenicol resistance methylase assessed as inhibition of visible growth of bacteria incubated for 20 hrs by broth microdilution method
# Enterococcus faecium [10] = assay: Antimicrobial activity against Enterococcus faecium HFY01 assessed as inhibition of visible growth of bacteria incubated for 20 hrs by broth microdilution method; type: functional
# Enterococcus faecium [11] = assay: Antimicrobial activity against Enterococcus faecium MC38 harboring erythromycin resistance rRNA methylase B and oxazolidinone-phenicol transferable resistance gene assessed as inhibition of visible growth of bacteria incubated for 20 hrs by broth microdilution method; type: functional
# Enterococcus faecalis [12] = assay: Antimicrobial activity against Enterococcus faecalis JH2-2 assessed as inhibition of visible growth of bacteria incubated for 20 hrs by broth microdilution method; type: functional
# Enterococcus faecalis [13] = assay: Antimicrobial activity against Enterococcus faecalis ES01 harboring erythromycin-resistance rRNA methylase B and vanB-type vancomycin-resistance locus assessed as inhibition of visible growth of bacteria incubated for 20 hrs by broth microdilution method; type: functional
# Enterococcus faecalis [14] = assay: Antimicrobial activity against Enterococcus faecalis J2 harboring erythromycin-resistance rRNA methylase B and oxazolidinone phenicol transferable resistance gene assessed as inhibition of visible growth of bacteria incubated for 20 hrs by broth microdilution method; type: functional
# Streptococcus suis [15] = assay: microbe, parasite or virus in culture; type: functional; conditions: SH0918, time 20 hrs
# Description: Antimicrobial activity against Streptococcus suis SH0918 harboring erythromycin-resistance rRNA methylase B, tetracycline efflux protein O and oxazolidinone phenicol transferable resistance gene assessed as inhibition of visible growth of bacteria incubated for 20 hrs by broth microdilution method
# Streptococcus pyogenes = assay: Antimicrobial activity against Streptococcus pyogenes DL02 harboring erythromycin-resistance rRNA methylase B assessed as inhibition of visible growth of bacteria incubated for 20 hrs by broth microdilution method; type: functional
# Streptococcus agalactiae = assay: Antimicrobial activity against Streptococcus agalactiae DL03 harboring erythromycin-resistance rRNA methylase B assessed as inhibition of visible growth of bacteria incubated for 20 hrs by broth microdilution method; type: functional
# Escherichia coli = assay: Antimicrobial activity against Escherichia coli ATCC 25922 assessed as inhibition of visible growth of bacteria incubated for 20 hrs by broth microdilution method; type: functional
# Salmonella enteritidis = assay: Antimicrobial activity against Salmonella enteritis S1 assessed as inhibition of visible growth of bacteria incubated for 20 hrs by broth microdilution method; type: functional, Salmonella enterica subsp. enterica serovar Enteritidis; conditions: Salmonella enterica
# Klebsiella pneumoniae = assay: Antimicrobial activity against Klebsiella pneumoniae 9-1 assessed as inhibition of visible growth of bacteria incubated for 20 hrs by broth microdilution method; type: functional
# Acinetobacter baumannii [16] = assay: Antimicrobial activity against Acinetobacter baumannii AB11 assessed as inhibition of visible growth of bacteria incubated for 20 hrs by broth microdilution method; type: functional
# Acinetobacter baumannii [17] = assay: Antimicrobial activity against Acinetobacter baumannii 7979 assessed as inhibition of visible growth of bacteria incubated for 20 hrs by broth microdilution method; type: functional
# Pseudomonas aeruginosa [18] = assay: Antimicrobial activity against Pseudomonas aeruginosa PA01 assessed as inhibition of visible growth of bacteria incubated for 20 hrs by broth microdilution method; type: functional
# Pseudomonas aeruginosa [19] = assay: Antimicrobial activity against Pseudomonas aeruginosa PA14 assessed as inhibition of visible growth of bacteria incubated for 20 hrs by broth microdilution method; type: functional
# Staphylococcus aureus [20] = assay: Bactericidal activity against Staphylococcus aureus ATCC 29213 assessed as decrease in bacterial number measured within 12 hrs by time-kill kinetics assay; type: functional, organism-based
# Staphylococcus aureus [21] = assay: Bactericidal activity against Staphylococcus aureus ATCC 29213 assessed as bacterial eradication at 4 times of MIC measured after 24 hrs by time-kill kinetics assay relative to control; type: functional
# Staphylococcus aureus [22] = assay: Bactericidal activity against Staphylococcus aureus ATCC 29213 assessed as bacterial killing at 8 times of MIC measured within 12 hrs by time-kill kinetics assay; type: functional, organism-based
# Staphylococcus aureus [23] = assay: Drug resistance, ratio of MIC for Staphylococcus aureus ATCC 29213 measured after 28 days to MIC for Staphylococcus aureus ATCC 29213 measured after 20 hrs; type: functional
# [24] = Cytotoxicity against human HEp-2 cells assessed as cell viability at 16 times of MIC incubated for 48 hrs by CCK8 assay (reference value: 100 %); type: toxicity, cell-based; conditions: read-out: Activity
# [25] = Cytotoxicity against human HEp-2 cells assessed as cell viability at 8 times of MIC incubated for 48 hrs by CCK8 assay (reference value: 100 %); type: toxicity, cell-based; conditions: read-out: Activity
# [26] = Cytotoxicity against human HEp-2 cells assessed as cell viability at 4 times of MIC incubated for 48 hrs by CCK8 assay (reference value: 100 %); type: toxicity, cell-based; conditions: read-out: Activity
# [27] = Cytotoxicity against human HEp-2 cells assessed as cell viability at 2 times of MIC incubated for 48 hrs by CCK8 assay (reference value: 100 %); type: toxicity, cell-based; conditions: read-out: Activity
# [28] = Cytotoxicity against human HEp-2 cells assessed as cell viability at 1 time of MIC incubated for 48 hrs by CCK8 assay (reference value: 100 %); type: toxicity, cell-based; conditions: read-out: Activity
# [29] = Cytotoxicity against human Caco-2 cells assessed as cell viability at 16 times of MIC incubated for 48 hrs by CCK8 assay (reference value: 99.54 %); type: toxicity, cell-based; conditions: read-out: Activity
# [30] = Cytotoxicity against human Caco-2 cells assessed as cell viability at 8 times of MIC incubated for 48 hrs by CCK8 assay (reference value: 99.54 %); type: toxicity, cell-based; conditions: read-out: Activity
# [31] = Cytotoxicity against human Caco-2 cells assessed as cell viability at 4 times of MIC incubated for 48 hrs by CCK8 assay (reference value: 99.54 %); type: toxicity, cell-based; conditions: read-out: Activity
# [32] = Cytotoxicity against human Caco-2 cells assessed as cell viability at 2 times of MIC incubated for 48 hrs by CCK8 assay (reference value: 99.54 %); type: toxicity, cell-based; conditions: read-out: Activity
# [33] = Cytotoxicity against human Caco-2 cells assessed as cell viability at 1 time of MIC incubated for 48 hrs by CCK8 assay (reference value: 99.54 %); type: toxicity, cell-based; conditions: read-out: Activity
# [34] = Hemolytic activity in Kunming mouse erythrocytes measured after 1 hrs by absorbance based assay; type: toxicity, cell-based, Erythrocyte
# [35] = Hemolytic activity in Kunming mouse erythrocytes assessed as hemolysis at 16 times of MIC measured after 1 hrs by absorbance based assay relative to control; type: toxicity, cell-based, Erythrocyte; conditions: read-out: Activity
# [36] = Hemolytic activity in Kunming mouse erythrocytes assessed as hemolysis at 8 times of MIC measured after 1 hrs by absorbance based assay relative to control; type: toxicity, cell-based, Erythrocyte; conditions: read-out: Activity
# [37] = Hemolytic activity in Kunming mouse erythrocytes assessed as hemolysis at 4 times of MIC measured after 1 hrs by absorbance based assay relative to control; type: toxicity, cell-based, Erythrocyte; conditions: read-out: Activity
# [38] = Hemolytic activity in Kunming mouse erythrocytes assessed as hemolysis at 2 times of MIC measured after 1 hrs by absorbance based assay relative to control; type: toxicity, cell-based, Erythrocyte; conditions: read-out: Activity
# [39] = Hemolytic activity in Kunming mouse erythrocytes assessed as hemolysis at 1 time of MIC measured after 1 hrs by absorbance based assay relative to control; type: toxicity, cell-based, Erythrocyte; conditions: read-out: Activity
structure (smiles),measurement,setting,value
COc1ccc2nc3c(c(C(=O)O)c2c1)CC(C)C/C3=C\c1cccc(-c2ccc(Cl)c(C(F)(F)F)c2)c1 (racemic),MIC,Staphylococcus aureus [1],2 µg/mL
same,MIC,Enterococcus faecium [2],4 µg/mL
same,MIC,Enterococcus faecalis [3],4 µg/mL
same,MIC,Streptococcus suis [4],8 µg/mL
same,MIC,Staphylococcus aureus [5],2 µg/mL
same,MIC,Staphylococcus aureus [6],2 µg/mL
same,MIC,Staphylococcus aureus [7],2 µg/mL
same,MIC,Staphylococcus aureus [8],2 µg/mL
same,MIC,Staphylococcus aureus [9],2 µg/mL
same,MIC,Enterococcus faecium [10],4 µg/mL
same,MIC,Enterococcus faecium [11],4 µg/mL
same,MIC,Enterococcus faecalis [12],4 µg/mL
same,MIC,Enterococcus faecalis [13],4 µg/mL
same,MIC,Enterococcus faecalis [14],8 µg/mL
same,MIC,Streptococcus suis [15],16 µg/mL
same,MIC,Streptococcus pyogenes,16 µg/mL
same,MIC,Streptococcus agalactiae,32 µg/mL
same,MIC,Escherichia coli,> 128 µg/mL
same,MIC,Salmonella enteritidis,> 128 µg/mL
same,MIC,Klebsiella pneumoniae,> 128 µg/mL
same,MIC,Acinetobacter baumannii [16],> 128 µg/mL
same,MIC,Acinetobacter baumannii [17],> 128 µg/mL
same,MIC,Pseudomonas aeruginosa [18],> 128 µg/mL
same,MIC,Pseudomonas aeruginosa [19],> 128 µg/mL
same,Activity,Staphylococcus aureus [20],Dose-dependent-effect
same,Activity,Staphylococcus aureus [21],100%
same,Activity,Staphylococcus aureus [22],Active
same,Ratio,Staphylococcus aureus [23],4
same,"viability at 48 h, 16 times of MIC",[24],2.42%
same,"viability at 48 h, 8 times of MIC",[25],35.5%
same,"viability at 48 h, 4 times of MIC",[26],66%
same,"viability at 48 h, 2 times of MIC",[27],84.8%
same,"viability at 48 h, 1 time of MIC",[28],89.8%
same,"viability at 48 h, 16 times of MIC",[29],5.84%
same,"viability at 48 h, 8 times of MIC",[30],36.6%
same,"viability at 48 h, 4 times of MIC",[31],51.9%
same,"viability at 48 h, 2 times of MIC",[32],69.8%
same,"viability at 48 h, 1 time of MIC",[33],89.6%
same,HC50 at 1 h,[34],25.9 µg/mL
same,"hemolysis at 1 h, 16 times of MIC",[35],63.5%
same,"hemolysis at 1 h, 8 times of MIC",[36],22.3%
same,"hemolysis at 1 h, 4 times of MIC",[37],1.8%
same,"hemolysis at 1 h, 2 times of MIC",[38],0%
same,"hemolysis at 1 h, 1 time of MIC",[39],0%
